From patent US20200369626A1 (Washington University, priority 2019, published 2020)

What follows are molecules tested against T1, S1PR2 (Homo sapiens, UniProt O95136) (assay: competitive [^32P]S1P binding assay on cell membranes, S1PR2). Conditions: IC50 S1PR2, Table 5.
T1 construct: purchased
T1 sequence (O95136 whole entry): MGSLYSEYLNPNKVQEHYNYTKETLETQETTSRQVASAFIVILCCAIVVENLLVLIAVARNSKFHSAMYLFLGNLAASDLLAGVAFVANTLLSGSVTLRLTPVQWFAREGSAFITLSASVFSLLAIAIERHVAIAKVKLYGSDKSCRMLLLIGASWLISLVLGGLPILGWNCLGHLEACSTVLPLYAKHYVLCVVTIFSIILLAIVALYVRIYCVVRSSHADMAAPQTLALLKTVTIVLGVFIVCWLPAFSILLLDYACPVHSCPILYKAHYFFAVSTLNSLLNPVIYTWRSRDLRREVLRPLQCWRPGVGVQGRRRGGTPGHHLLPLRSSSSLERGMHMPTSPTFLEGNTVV
Method: The test compounds were dissolved in DMSO and diluted into test samples with increasing concentrations with assay buffer. Commercial cell membranes expressing recombinant human S1PR were diluted with assay buffer to make a 20-40 μg/mL of solution. […] The plate was incubated for 60 min at room temperature with shaking and terminated by collecting the membranes onto 96-well glass fiber (GF/B) filtration plates (Millipore, Billerica, Mass.). Each filter was washed with 200 μL of assay buffer for a total of five washes. […] The IC50 values were fitted from GraphPad Prism 6 using one site Nonlinear Regression.

| SMILES | IC50 [nM] |
| --- | --- |
| CNC(=O)c1ccc(Oc2cc(NC(=O)N3CCC(=O)CC3)cc(C(F)(F)F)c2)cc1 [TZ51-020] | > 1000 |

Same assay, conditions: Table 5; read-out: IC50 S1PR2

| SMILES | IC50 [nM] |
| --- | --- |
| CCC(CC)CC1(O)CCN(C(=O)Nc2cc(C(=O)c3ccc(S(C)(=O)=O)cc3)cc(C(F)(F)F)c2)CC1 [TZ59-093] | > 1000 |
| CCC(CC)CC1(O)CCN(C(=O)Nc2cc(Oc3ccc(F)cc3)cc(OC3CCN(C(C)=O)CC3)c2)CC1 [TZ57-080] | > 1000 |
| CC1(O)CCN(C(=O)Nc2cc(Oc3ccc(S(C)(=O)=O)cc3)cc(C(F)(F)F)c2)CC1 [TZ51-058] | > 1000 |
| CS(=O)(=O)c1ccc(Oc2cc(NC(=O)N3CC[C@@]4(O)CCCC[C@H]4C3)cc(Oc3ccc(F)cc3)c2)cc1 [TZ57-091] | > 1000 |
| COc1ccc(NC(=O)c2cn(CC(=O)Nc3cc(Cl)c(OC)cc3OC)c3ccccc3c2=O)cc1 [TZ62-125] | > 1000 |
| CNC(=O)c1ccc(Oc2cc(NC(=O)N3CC[C@@]4(O)CCCC[C@H]4C3)cc(Oc3ccc(F)cc3)c2)cc1 [TZ57-096] | > 1000 |
| COc1cc(OC)c(NC(=O)Cn2c(=O)n(CCCC(=O)NC3CCCC3)c(=O)c3cc(Cl)ccc32)cc1Cl [TZ62-091] | > 1000 |
| CS(=O)(=O)c1ccc(Oc2nc(NC(=O)N3CCc4ccccc4C3)nc(C(F)(F)F)n2)cc1 [TZ57-047] | > 1000 |
| CNC(=O)c1ccc(Oc2cc(NC(=O)N3CCOCC3)cc(C(F)(F)F)c2)cc1 [TZ51-019] | > 1000 |
| CC(C)C1(O)CCN(C(=O)Nc2cc(Oc3ccncc3)cc(C(F)(F)F)c2)CC1 [TZ51-061] | > 1000 |
| CCC(CC)CC1(O)CCN(C(=O)Nc2cc(C)cc(Oc3ccc(S(C)(=O)=O)cc3)c2)CC1 [TZ59-008] | > 1000 |
| CCC(CC)CC1(O)CCN(C(=O)Nc2cc(Oc3ccc(F)cc3)cc(N3CCN(C)CC3)c2)CC1 [TZ57-013] | > 1000 |
| CCC(CC)CC1(O)CCN(C(=O)Nc2cc(Nc3ccc(S(C)(=O)=O)cc3)cc(C(F)(F)F)c2)CC1 [TZ59-062] | > 1000 |
| CC(C)CC1(O)CCN(C(=O)Nc2cc(Oc3ccc(C(N)=O)cc3)cc(C(F)(F)F)c2)CC1 [TZ51-096] | > 1000 |
| COc1ccccc1NC(=O)Cn1c(=O)c2ccccc2n(CC(=O)c2ccc(F)cc2)c1=O [TZ62-016] | > 1000 |
| CCC(CC)CC1(O)CCN(C(=O)Nc2cc(OCCF)cc(C(F)(F)F)c2)CC1 [TZ59-044] | > 1000 |
| CCC(CC)CC1(O)CCN(C(=O)Nc2cc(Oc3ccc(C(=O)NC)cc3)cc(C(F)(F)F)c2)CC1 [TZ51-018] | > 1000 |
| COc1cc(OC)c(NC(=O)Cn2c(=O)n(C)c(=O)c3ccccc32)cc1Cl [TZ62-084] | > 1000 |
| CCC1(O)CCN(C(=O)Nc2cc(Oc3ccc(C(=O)NC)cc3)cc(C(F)(F)F)c2)CC1 [TZ51-046] | > 1000 |
| CNC(=O)c1ccc(Oc2cc(NC(=O)N3CCC(O)(CC(C)C)C3)cc(Oc3ccc(F)cc3)c2)cc1 (stereo not shown) [TZ57-122] | 77 ± 16 |

| SMILES | IC50 [nM] |
| --- | --- |
| COc1ccc(C(=O)Cn2c(=O)n(CC(=O)Nc3ccccc3OC)c(=O)c3ccccc32)cc1Cl [TZ62-026] | 287 ± 69 |
| O=C(O)Cn1c(=O)c2ccccc2n(CC(=O)Nc2cc(Cl)nc(Cl)c2)c1=O [TZ62-092] | > 1000 |
| CCC(CC)CC1(O)CCN(C(=O)Nc2cc(OC)cc(C(F)(F)F)c2)CC1 [TZ59-046] | > 1000 |
| CC(C)CC1(O)CCN(C(=O)Nc2cc(Oc3ccc(C(=O)N(C)C)cc3)cc(C(F)(F)F)c2)CC1 [TZ51-095] | > 1000 |
| COc1cc(OC)c(NC(=O)Cn2c(=O)n(CC(=O)Nc3ccc(I)cc3)c(=O)c3ccccc32)cc1Cl [TZ65-033] | 16.9 ± 5.6 |
| CCOc1ccc(C(=O)Cn2cc(C(=O)O)c(=O)c3ccccc32)cc1Cl [TZ62-120] | 270 ± 210 |
| COc1cc(OC)c(NC(=O)Cn2c(=O)n(CCF)c(=O)c3ccccc32)cc1Cl [TZ62-083] | > 1000 |
| CNC(=O)c1ccc(Oc2cc(NC(=O)N3CC(N4CCN(C)CC4)C3)cc(C(F)(F)F)c2)cc1 [TZ51-112] | > 1000 |
| COc1cc(OC)c(NC(=O)Cn2c(=O)n(CC(=O)NCCOCCO)c(=O)c3ccccc32)cc1Cl [TZ59-132, N-(5-Chloro-2,4-dimethoxyphenyl)-2-(3-(2-((2-(2-hydroxyethoxy)ethyl)amino)-2-oxoethyl)-2,4-dioxo-3,4-dihydroquinazolin-1(2H)-yl)acetamide] | 91.4 ± 17.6 |
| COc1cc(OC)c(NC(=O)Cn2c(=O)n(Cc3ccccc3)c(=O)c3ccccc32)cc1Cl [TZ62-077] | > 1000 |
| CCOc1ccc(C(=O)Cn2c(=O)n(Cc3ccccc3)c(=O)c3ccccc32)cc1Cl [TZ62-097] | > 1000 |
| CCOc1ccc(C(=O)Cn2c(=O)n(CC(=O)Nc3ccccc3OC)c(=O)c3ccccc32)cc1Cl [TZ62-114] | 49.8 ± 4.9 |
| CC(C)CC1(O)CCN(C(=O)Nc2cc(Oc3ccc(C(=O)O)cc3)cc(C(F)(F)F)c2)CC1 [TZ51-073] | > 1000 |
| CCOc1ccc(C(=O)Cn2c(=O)n(CCCC(=O)N3CCCC3)c(=O)c3ccccc32)cc1Cl [TZ62-050] | > 1000 |
| CNC(=O)c1ccc(Oc2cc(NC(=O)N3CC(O)(CC(C)C)C3)cc(C(F)(F)F)c2)cc1 [TZ51-097] | > 1000 |
| CC(C)C(=O)C1CCN(C(=O)Nc2cc(Oc3ccc(F)cc3)cc(Oc3ccc(S(C)(=O)=O)cc3)c2)CC1 [TZ57-063] | > 1000 |
| COc1cc(OC)c(NC(=O)Cn2c(=O)n(CCN3CCOCC3)c(=O)c3ccccc32)cc1Cl [TZ62-102] | > 1000 |
| CCC(CC)CC1(O)CCN(C(=O)Nc2cc(Oc3ccc(S(C)(=O)=O)cc3)cc(Oc3ccc(F)nc3)c2)CC1 [TZ57-041] | 198 ± 45 |
| COc1cc(OC)c(NC(=O)Cn2c(=O)n(CCCC(=O)NC3CCCC3)c(=O)c3ccccc32)cc1Cl [TZ62-090] | 76 ± 19 |
| COc1ccccc1NC(=O)Cn1c(=O)c2ccccc2n(Cc2ccc(F)cc2)c1=O [TZ62-014] | > 1000 |

| SMILES | IC50 [nM] |
| --- | --- |
| CC(C)CC1(O)CN(C(=O)Nc2cc(Oc3ccc(F)cc3)cc(Oc3ccc(S(C)(=O)=O)cc3)c2)C1 [TZ57-119] | > 1000 |
| CCOc1ccc(C(=O)Cn2c(=O)n(CC)c(=O)c3ccccc32)cc1Cl [TZ62-099] | > 1000 |
| CCC1(O)CCN(C(=O)Nc2cc(Oc3ccc(S(C)(=O)=O)cc3)cc(C(F)(F)F)c2)CC1 [TZ51-047] | > 1000 |
| COc1ccccc1NC(=O)Cn1c(=O)c2ccccc2n(CC(=O)Nc2cc(Cl)ccc2OC)c1=O [TZ62-008] | 54.9 ± 6 |
| CNC(=O)Cn1c(=O)c2ccccc2n(CC(=O)Nc2cc(Cl)c(OC)cc2OC)c1=O [TZ59-135, N-(5-Chloro-2,4-dimethoxyphenyl)-2-(3-(2-(methylamino)-2-oxoethyl)-2,4-dioxo-3,4-dihydroquinazolin-1(2H)-yl)acetamide] | 376 ± 91 |
| CCC(CC)CC1(O)CCN(C(=O)Nc2cc(Oc3ccc(S(C)(=O)=O)cc3)cc(Sc3ccc(F)cc3)c2)CC1 [TZ57-155] | 143 ± 30 |
| CCC(CC)CC1(O)CCN(C(=O)Nc2cc(OCCF)cc(Oc3ccc(F)cc3)c2)CC1 [TZ51-149] | > 1000 |
| COc1cc(OC)c(NC(=O)Cn2c(=O)n(CC(=O)Nc3ccc(O)cc3)c(=O)c3ccccc32)cc1Cl [TZ59-124, N-(5-Chloro-2,4-dimethoxyphenyl)-2-(3-(2-((4-hydroxyphenyl)amino)-2-oxoethyl)-2,4-dioxo-3,4-dihydroquinazolin-1(2H)-yl)acetamide] | 2.6 ± 0.3 |
| COc1ccc(Oc2cc(NC(=O)N3CCC(O)(C(C)C)CC3)cc(C(F)(F)F)c2)cc1 [TZ51-059] | > 1000 |
| CCC(CC)CC1(O)CCN(C(=O)Nc2nc(Oc3ccc(F)cc3)cc(Oc3ccc(F)cc3)n2)CC1 [TZ57-007] | > 1000 |
| CCC(CC)CC1(O)CCN(C(=O)Nc2cc(Oc3ccc(C(=O)NC)cc3)c3c(c2)oc2ccc(F)cc23)CC1 [TZ51-011] | 472 ± 244 |
| COc1cc(OC)c(NC(=O)Cn2c(=O)n(CC(=O)NCCOCCOCCO)c(=O)c3ccccc32)cc1Cl [TZ59-133, N-(5-Chloro-2,4-dimethoxyphenyl)-2-(3-(2-((2-(2-(2-hydroxyethoxy)ethoxy)ethyl)amino)-2-oxoethyl)-2,4-dioxo-3,4-dihydroquinazolin-1(2H)-yl)acetamide] | 204 ± 96 |
| CC(C)CC1(O)CCN(C(=O)Nc2ccc(NC(=O)N3CCC(O)(CC(C)C)CC3)cc2)CC1 [TZ57-112] | > 1000 |
| CCC(CC)CC1(O)CCN(C(=O)Nc2cc(C(=O)c3ccc(C(=O)NC)cc3)cc(C(F)(F)F)c2)CC1 [TZ59-089] | > 1000 |
| CCC(CC)CC1(O)CCN(C(=O)Nc2cc(Sc3ccc(F)cc3)cc(Sc3ccc(S(C)(=O)=O)cc3)c2)CC1 [TZ57-158] | 67 ± 10 |
| CCn1c(=O)c2ccccc2n(CC(=O)Nc2cc(Cl)c(OC)cc2OC)c1=O [TZ62-087] | > 1000 |
| CCC(CC)CC1(O)CCN(C(=O)Nc2cc(F)cc(C(F)(F)F)c2)CC1 [TZ59-042] | > 1000 |
| COc1cc(OC)c(NC(=O)Cn2c(=O)n(CC(=O)N(C)C)c(=O)c3ccccc32)cc1Cl [TZ59-136, 2-(1-(2-((5-Chloro-2,4-dimethoxyphenyl)amino)-2-oxoethyl)-2,4-dioxo-1,4-dihydroquinazolin-3(2H)-yl)-N,N-dimethylacetamide] | 175 ± 13 |

Same assay, conditions: [^32P]S1P competition, IC50 ± SD, Table 1 (2a-l, 4a-h); read-out: IC50 (binding potency toward S1PR2)

| SMILES | IC50 [nM] |
| --- | --- |
| COc1cccc(NC(=O)Cn2c(=O)c3ccccc3n(CC(=O)Nc3cc(Cl)c(OC)cc3OC)c2=O)c1 [Compound 2b] | 39.1 ± 7 |
| COc1cc(OC)c(NC(=O)Cn2c(=O)n(CC(=O)N(C)C)c(=O)c3ccccc32)cc1Cl [Compound 2l] | 175 ± 13 |

Same assay, conditions: [^32P]S1P competition, IC50 ± SD, second Table 1; read-out: S2PR2 IC50

| SMILES | IC50 [nM] |
| --- | --- |
| CCC(CC)CC1(O)CCN(C(=O)Nc2cc(Oc3ccc(F)cc3)cc(N3CCN(C)CC3)c2)CC1 [Compound 17a, 4-(2-Ethylbutyl)-N-(3-(4-fluorophenoxy)-5-(4-methylpiperazin-1-yl)phenyl)-4-hydroxypiperidine-1-carboxamide] | > 1000 |
| CCC(CC)CC1(O)CCN(C(=O)Nc2cc(Oc3ccc(C(=O)NC)cc3)cc(C(F)(F)F)c2)CC1 [Compound 21c, 4-(2-Ethylbutyl)-4-hydroxy-N-(3-(4-(methylcarbamoyl)-phenoxy)-5 (trifluoromethyl)phenyl)piperidine-1-carboxamide] | 278 |

Same assay, conditions: [^32P]S1P competition; read-out: IC50 value, S1PR2 binding

| SMILES | IC50 [nM] |
| --- | --- |
| CN1CCN(c2cc(Oc3ccc(F)cc3)cc([N+](=O)[O-])c2)CC1 [Compound 15a, 1-(3-(4-Fluorophenoxy)-5-nitrophenyl)-4-methylpiperazine] | > 1000 |
